Assay results from paper PMC12250302, “Synthesis, Antimicrobial Activities, and Model of Action of Novel Tetralone Derivatives Containing Aminoguanidinium Moiety” (International Journal of Molecular Sciences, 2025).
≈ marks a conversion by molar mass, not a printed value.

Legend:
[1] = system: S. aureus, including MRSA; assay: MIC testing, summary over S. aureus strains; format: cell-based; conditions: Staphylococcus aureus
Description: (§1) The minimum inhibitory concentration (MIC) of all synthesized compounds was tested by the broth microdilution method. In brief, compounds dissolved in DMSO were diluted twice continuously in a 96-well plate with MH broth. The ESKAPE pathogens (E. coli ATCC 25922, S. aureus ATCC 29213, K. pneumoniae ATCC 700603, A. baumannii ATCC 19606, P. aeruginosa ATCC 27853, and E. faecium ATCC 35667), clinical S. aureus isolates (LMY45, LMY46, LMY47, and LMY48) and methicillin-resistant Staphylococcus aureus (MRSA-1 and MRSA-2) were cultured in MH broth to logarithmic growth phase and then diluted to 1 × 10^6 CFU/mL in MH broth. Subsequently, the diluted bacterial solution was mixed with the diluted compound solution in a 96-well plate and incubated at 37 °C for a duration of 18 h. The MIC of the compounds was recorded as the lowest concentration at which no visible growth was observed. […] Each concentration was replicated thrice.

A. baumannii ATCC 19606 = assay: MIC and MBC testing, broth microdilution; format: cell-based, Acinetobacter baumannii; conditions: Acinetobacter baumannii; for MIC: ATCC19606, 18 h, read-out: MIC; for MBC: ATCC19606, read-out: MBC
In short: (§2)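 Controls comprised levofloxacin (positive) and 0.1% DMSO (negative). Compounds, serially halved in MH broth, met log-phase cells pre-diluted to 1 × 10^6 CFU/mL; after an 18 h, 37 °C incubation, absence of visible growth defined the MIC, triplicate per concentration.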

[2] = system: K. pneumoniae ATCC 700603; assay: MIC and MBC testing, broth microdilution; format: cell-based, Klebsiella pneumoniae; conditions: Klebsiella pneumoniae; for MIC: ATCC700603, 18 h, read-out: MIC; for MBC: ATCC700603, read-out: MBC
In short: as §2

S. aureus ATCC 29213 = assay: MIC and MBC testing, broth microdilution; format: cell-based, Staphylococcus aureus; conditions: Staphylococcus aureus, ATCC29213, S. aureus ATCC 29213; for MIC: 18 h, read-out: MIC; for MBC: read-out: MBC
In short: as §2

[3] = system: clinical S. aureus isolate LMY48; assay: MIC and MBC testing, broth microdilution; format: cell-based, Staphylococcus aureus; conditions: Staphylococcus aureus, LMY48; for MIC: 18 h, read-out: MIC; for MBC: read-out: MBC
In short: (§3)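 Broth microdilution in MH broth; two-fold serial dilutions of DMSO-dissolved compound; inoculum 1 × 10^6 CFU/mL from log-phase culture; 37 °C, 18 h; triplicates; MBC also read.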

[4] = system: clinical S. aureus isolate LMY47; assay: MIC and MBC testing, broth microdilution; format: cell-based, Staphylococcus aureus; conditions: Staphylococcus aureus, LMY47; for MIC: 18 h, read-out: MIC; for MBC: read-out: MBC
In short: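 Triplicate broth microdilution: MH broth, serial 2× dilution of compounds dissolved in DMSO, 1 × 10^6 CFU/mL bacteria grown to log phase, 18 h at 37 °C, followed by MBC determination.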

[5] = system: clinical S. aureus isolate LMY46; assay: MIC and MBC testing, broth microdilution; format: cell-based, Staphylococcus aureus; conditions: Staphylococcus aureus, LMY46; for MIC: 18 h, read-out: MIC; for MBC: read-out: MBC
In short: as §3

MRSA-2 = assay: MIC and MBC testing, broth microdilution; format: cell-based, Staphylococcus aureus; conditions: Staphylococcus aureus, MRSA-2; for MIC: 18 h, read-out: MIC; for MBC: read-out: MBC
In short: as §3

MRSA-1 = assay: MIC and MBC testing, broth microdilution; format: cell-based, Staphylococcus aureus; conditions: Staphylococcus aureus, MRSA-1; for MIC: 18 h, read-out: MIC; for MBC: read-out: MBC
In short: as §3

[6] = system: clinical S. aureus isolate LMY45; assay: MIC and MBC testing, broth microdilution; format: cell-based, Staphylococcus aureus; conditions: Staphylococcus aureus, LMY45; for MIC: 18 h, read-out: MIC; for MBC: read-out: MBC
In short: as §3

E. coli ATCC 25922 = assay: MIC and MBC testing, broth microdilution; format: cell-based, Escherichia coli; conditions: Escherichia coli; for MIC: ATCC25922, 18 h, read-out: MIC; for MBC: ATCC25922, read-out: MBC
In short: as §2

P. aeruginosa ATCC 27853 = assay: MIC and MBC testing, broth microdilution; format: cell-based, Pseudomonas aeruginosa; conditions: Pseudomonas aeruginosa; for MIC: ATCC27853, 18 h, read-out: MIC; for MBC: ATCC27853, read-out: MBC
In short: as §2

E. faecium ATCC 35667 = assay: MIC and MBC testing, broth microdilution; format: cell-based, Enterococcus faecium; conditions: Enterococcus faecium, ATCC35667, E. faecium ATCC 35667; for MIC: 18 h, read-out: MIC; for MBC: read-out: MBC
In short: as §2

MRSA = assay: MIC testing, summary over MRSA strains; format: cell-based; conditions: Staphylococcus aureus; against MRSA
Description: as §1

| Structure (SMILES) | MIC [1] [µg/mL] | MIC (A. baumannii ATCC 19606) [µg/mL] | MBC (A. baumannii ATCC 19606) [µg/mL] | MIC [2] [µg/mL] | MBC [2] [µg/mL] | MIC (S. aureus ATCC 29213) [µg/mL] | MBC (S. aureus ATCC 29213) [µg/mL] | MIC [3] [µg/mL] | MBC [3] [µg/mL] | MIC [4] [µg/mL] | MBC [4] [µg/mL] | MIC [5] [µg/mL] | MBC [5] [µg/mL] | MIC (MRSA-2) [µg/mL] | MBC (MRSA-2) [µg/mL] | MIC (MRSA-1) [µg/mL] | MBC (MRSA-1) [µg/mL] | MIC [6] [µg/mL] | MBC [6] [µg/mL] | MIC (E. coli ATCC 25922) [µg/mL] | further results |
| --- | --- | --- | --- | --- | --- | --- | --- | --- | --- | --- | --- | --- | --- | --- | --- | --- | --- | --- | --- | --- | --- |
| [H]/N=C(\N)NN=C1CCCc2cc(OCc3ccc(Br)cc3)ccc21 [Compound 1S, (E)-2-(6-((4-bromobenzyl)oxy)-3,4-dihydronaphthalen-1(2H)-ylidene)hydrazine-1-carboximidamide] | 0.5 to 4 (≈ 1.29 to 10.3 µM) | 8 (≈ 20.7 µM) | 16 (≈ 41.3 µM) | 16 (≈ 41.3 µM) | 16 (≈ 41.3 µM) | 2 (≈ 5.16 µM) | 8 (≈ 20.7 µM) | 4 (≈ 10.3 µM) | 8 (≈ 20.7 µM) | 2 (≈ 5.16 µM) | 4 (≈ 10.3 µM) | 1 (≈ 2.58 µM) | 4 (≈ 10.3 µM) | 1 (≈ 2.58 µM) | 4 (≈ 10.3 µM) | 1 (≈ 2.58 µM) | 4 (≈ 10.3 µM) | 2 (≈ 5.16 µM) | 4 (≈ 10.3 µM) | 4 (≈ 10.3 µM) | MBC (E. coli ATCC 25922): 8 µg/mL (≈ 20.7 µM); MIC (P. aeruginosa ATCC 27853): > 32 µg/mL; MIC (E. faecium ATCC 35667): 4 µg/mL (≈ 10.3 µM); MBC (E. faecium ATCC 35667): 8 µg/mL (≈ 20.7 µM); MIC (MRSA): 1 to 2 µg/mL (≈ 2.58 to 5.16 µM) |
| [H]/N=C(\N)NN=C1CCCc2cc(OCc3ccc(F)c(Cl)c3)ccc21 [Compound 1U, (E)-2-(6-((3-chloro-4-fluorobenzyl)oxy)-3,4-dihydronaphthalen-1(2H)-ylidene)hydrazine-1-carboximidamide] | 0.5 to 4 (≈ 1.39 to 11.1 µM) | 4 (≈ 11.1 µM) | 16 (≈ 44.3 µM) | 8 (≈ 22.2 µM) | 32 (≈ 88.7 µM) | 2 (≈ 5.54 µM) | 4 (≈ 11.1 µM) | 4 (≈ 11.1 µM) | 8 (≈ 22.2 µM) | 2 (≈ 5.54 µM) | 4 (≈ 11.1 µM) | 1 (≈ 2.77 µM) | 4 (≈ 11.1 µM) | 1 (≈ 2.77 µM) | 4 (≈ 11.1 µM) | 2 (≈ 5.54 µM) | 32 (≈ 88.7 µM) | 2 (≈ 5.54 µM) | 2 (≈ 5.54 µM) | 4 (≈ 11.1 µM) | MBC (E. coli ATCC 25922): 16 µg/mL (≈ 44.3 µM); MIC (P. aeruginosa ATCC 27853): 16 µg/mL (≈ 44.3 µM); MBC (P. aeruginosa ATCC 27853): > 32 µg/mL; MIC (E. faecium ATCC 35667): 2 µg/mL (≈ 5.54 µM); MBC (E. faecium ATCC 35667): 16 µg/mL (≈ 44.3 µM); MIC (MRSA): 1 to 2 µg/mL (≈ 2.77 to 5.54 µM) |
| [H]/N=C(\N)NN=C1CCCc2cc(OCCCC)ccc21 [Compound 2A, (E)-2-(6-butoxy-3,4-dihydronaphthalen-1(2H)-ylidene)hydrazine-1-carboximidamide] | 0.5 to 4 (≈ 1.82 to 14.6 µM) | 8 (≈ 29.2 µM) | 16 (≈ 58.3 µM) | 16 (≈ 58.3 µM) | > 32 | 4 (≈ 14.6 µM) | > 32 | 1 (≈ 3.64 µM) | 2 (≈ 7.29 µM) | 2 (≈ 7.29 µM) | 2 (≈ 7.29 µM) | 2 (≈ 7.29 µM) | 4 (≈ 14.6 µM) | 1 (≈ 3.64 µM) | 2 (≈ 7.29 µM) | 2 (≈ 7.29 µM) | 2 (≈ 7.29 µM) | 2 (≈ 7.29 µM) | 4 (≈ 14.6 µM) | 16 (≈ 58.3 µM) | MBC (E. coli ATCC 25922): > 32 µg/mL; MIC (P. aeruginosa ATCC 27853): 32 µg/mL (≈ 117 µM); MBC (P. aeruginosa ATCC 27853): 32 µg/mL (≈ 117 µM); MIC (E. faecium ATCC 35667): 8 µg/mL (≈ 29.2 µM); MBC (E. faecium ATCC 35667): 32 µg/mL (≈ 117 µM); MIC (MRSA): 1 to 2 µg/mL (≈ 3.64 to 7.29 µM) |
